# Measured values as given in patent US9403776B2, “Aryl- and heteroaryl-substituted tetrahydrobenzazepines and use thereof to block reuptake of norepinephrine, dopamine, and serotonin” (Albany Molecular Research, Inc., priority 2005, dated 2016).
# Where a name gives a salt, the structure may show the parent alone.
row,melting point [°C],Structure (SMILES)
1,64 to 66,"CCN1CCC(c2ccccc2)c2ccc(N3CCOCC3)cc2C1 (single isomer, unassigned; (+)) (as salt: maleate) [Example 57 (+), (+)-4-(2-ethyl-5-phenyl-2,3,4,5-tetrahydro-1H-benzo[c]azepin-8-yl)morpholine]"
2,108 to 110,"c1ccc(CN2CCC(c3ccccc3)c3ccc(N4CCOCC4)cc3C2)cc1 (single isomer, unassigned; (+)) (as salt: maleate) [Example 61, (+)-4-(2-benzyl-5-phenyl-2,3,4,5-tetrahydro-1H-benzo[c]azepin-8-yl)morpholine]"
3,87 to 90,"CN1CCC(c2ccc(F)cc2)c2ccc(N3CCOCC3)cc2C1 (single isomer, unassigned; (+)) (as salt: maleate) [Example 85, (+)-4-(5-(4-fluorophenyl)-2-methyl-2,3,4,5-tetrahydro-1H-benzo[c]azepin-8-yl)morpholine]"
4,173 to 176,"Cc1ccc(-c2ccc3c(c2)CN(C)CCC3c2ccc(F)cc2)nn1 (single isomer, unassigned; (+)) (as salt: maleate) [Example 89, (+)-5-(4-fluorophenyl)-2-methyl-8-(6-methylpyridazin-3-yl)-2,3,4,5-tetrahydro-1H-benzo[c]azepine]"
5,103 to 105,"CN1CCC(c2ccccc2)c2ccc(C(C)(C)O)cc2C1 (single isomer, unassigned; (+)) (as salt: tartrate) [Example 18, (+)-2-(2-methyl-5-phenyl-2,3,4,5-tetrahydro-1H-benzo[c]azepin-8-yl)propan-2-ol]"
6,124 to 127,"CN1CCC(c2ccccc2)c2ccc(CN3CCOCC3)cc2C1 (single isomer, unassigned; (+)) (as salt: tartrate) [Example 22, (+)-4-((2-methyl-5-phenyl-2,3,4,5-tetrahydro-1H-benzo[c]azepin-8-yl)methyl)morpholine]"
7,102 to 104,"Cc1nc(-c2ccc3c(c2)CN(C)CCC3c2ccccc2)no1 (single isomer, unassigned; (+)) (as salt: tartrate) [Example 33, (+)-5-methyl-3-(2-methyl-5-phenyl-2,3,4,5-tetrahydro-1H-benzo[c]azepin-8-yl)-1,2,4-oxadiazole]"
8,93 to 96,"OCCN1CCC(c2ccccc2)c2ccc(N3CCOCC3)cc2C1 (single isomer, unassigned; (+)) (as salt: tartrate) [Example 59, (+)-2-(8-morpholino-5-phenyl-4,5-dihydro-1H-benzo[c]azepin-2(3H)-yl)ethanol]"
9,102 to 105,"FCCN1CCC(c2ccccc2)c2ccc(N3CCOCC3)cc2C1 (single isomer, unassigned; (+)) (as salt: tartrate) [Example 60, (+)-4-(2-(2-fluoroethyl)-5-phenyl-2,3,4,5-tetrahydro-1H-benzo[c]azepin-8-yl)morpholine]"
10,119 to 121,"CN1CCC(c2ccccc2)c2ccc(N3CCN(c4ncccn4)CC3)cc2C1 (single isomer, unassigned; (+)) (as salt: tartrate) [Example 69, (+)-2-methyl-5-phenyl-8-(4-(pyrimidin-2-yl)piperazin-1-yl)-2,3,4,5-tetrahydro-1H-benzo[c]azepine]"
11,142 to 144,"CN1CCC(c2ccccc2)c2ccc(-c3ccc4nccn4c3)cc2C1 (single isomer, unassigned; (+)) (as salt: tartrate) [Example 73, (+)-8-(imidazo[1,2-a]pyridin-6-yl)-2-methyl-5-phenyl-2,3,4,5-tetrahydro-1H-benzo[c]azepine]"
12,112 to 115,"Cc1ccc(-c2ccc3c(c2)CN(C)CCC3c2ccc(C#N)c(F)c2)nn1 (single isomer, unassigned; (+)) (as salt: tartrate) [Example 92 (+), (+)-2-fluoro-4-(2-methyl-8-(6-methylpyridazin-3-yl)-2,3,4,5-tetrahydro-1H-benzo[c]azepin-5-yl)benzonitrile]"
13,111 to 117,"CN1CCC(c2ccc3sccc3c2)c2ccc(-c3cncnc3)cc2C1.O=C(O)/C=C\C(=O)O (single isomer, unassigned; (+)) [Example 104, (+)-5-(benzo[b]thiophen-5-yl)-2-methyl-8-(pyrimidin-5-yl)-2,3,4,5-tetrahydro-1H-benzo[c]azepine, maleate salt]"
14,102 to 108,"CN1CCC(c2ccc3sccc3c2)c2ccc(-c3cnccn3)cc2C1.O=C(O)/C=C\C(=O)O (single isomer, unassigned; (+)) [Example 105, (+)-5-(benzo[b]thiophen-5-yl)-2-methyl-8-(pyrazin-2-yl)-2,3,4,5-tetrahydro-1H-benzo[c]azepine, maleate salt]"
15,105 to 109,"Cc1ccc(-c2ccc3c(c2)CN(C)CCC3c2ccc3sccc3c2)nn1.O=C(O)/C=C\C(=O)O (single isomer, unassigned; (+)) [Example 106, (+)-5-(benzo[b]thiophen-5-yl)-2-methyl-8-(6-methylpyridazin-3-yl)-2,3,4,5-tetrahydro-1H-benzo[c]azepine, maleate salt]"
16,117 to 121,"CN1CCC(c2ccc3sccc3c2)c2ccc(-c3cccnn3)cc2C1.O=C(O)/C=C\C(=O)O (single isomer, unassigned; (+)) [Example 107, (+)-5-(benzo[b]thiophen-5-yl)-2-methyl-8-(pyridazin-3-yl)-2,3,4,5-tetrahydro-1H-benzo[c]azepine, maleate salt]"
17,107 to 110,"Cc1ccc(-c2ccc3c(c2)CN(C)CCC3c2cccc(F)c2)nn1 (single isomer, unassigned; (-)) (as salt: citrate) [Example 84 (−), (−)-5-(3-fluorophenyl)-2-methyl-8-(6-methylpyridazin-3-yl)-2,3,4,5-tetrahydro-1H-benzo[c]azepine]"
18,246 to 248,"COc1ccc2c(c1)CN(C)CCC2c1ccc(F)cc1 (single isomer, unassigned; (-)) (as salt: hydrochloride) [Example 4 (−), (−)-5-(4-fluorophenyl)-8-methoxy-2-methyl-2,3,4,5-tetrahydro-1H-benzo[c]azepine]"
19,193 to 194,"COc1ccc(C2CCN(C)Cc3cc(OC)ccc32)cc1 (single isomer, unassigned; (-)) (as salt: hydrochloride) [Example 6 (−), (−)-5-(4-methoxyphenyl)-8-methoxy-2-methyl-2,3,4,5-tetrahydro-1H-benzo[c]azepine]"
20,210 to 211,"COc1ccc2c(c1)CN(C)CCC2c1ccc(Cl)cc1 (single isomer, unassigned; (-)) (as salt: hydrochloride) [Example 8 (−), (−)-5-(4-chlorophenyl)-8-methoxy-2-methyl-2,3,4,5-tetrahydro-1H-benzo[c]azepine]"
21,159 to 161,"CN1CCC(c2ccc(F)cc2)c2ccc(O)cc2C1 (single isomer, unassigned; (-)) (as salt: hydrochloride) [Example 14, (−)-5-(4-fluorophenyl)-2-methyl-2,3,4,5-tetrahydro-1H-benzo[c]azepin-8-ol]"
22,82 to 84,"CN1CCC(c2ccc(Cl)cc2)c2ccc(-c3cnccn3)cc2C1 (single isomer, unassigned; (-)) (as salt: maleate) [Example 41 (−), (−)-5-(4-chlorophenyl)-2-methyl-8-(pyrazin-2-yl)-2,3,4,5-tetrahydro-1H-benzo[c]azepine]"
23,66 to 68,"Cc1noc(C)c1-c1ccc2c(c1)CN(C)CCC2c1ccc(Cl)cc1 (single isomer, unassigned; (-)) (as salt: maleate) [Example 42, (−)-5-(4-chlorophenyl)-8-(3,5-dimethylisoxazol-4-yl)-2-methyl-2,3,4,5-tetrahydro-1H-benzo[c]azepine]"
24,109 to 110,"CN1CCC(c2ccc(Cl)cc2)c2ccc(-c3ccc(N(C)C)nn3)cc2C1 (single isomer, unassigned; (-)) (as salt: maleate) [Example 46, (−)-{6-[5-(4-chlorophenyl)-2-methyl-2,3,4,5-tetrahydro-1H-benzo[c]azepine-8-yl]-pyridazin-3-yl}-dimethylamine]"
25,99 to 100,"CN1CCC(c2ccc(Cl)cc2)c2ccc(N3CCOCC3)cc2C1 (single isomer, unassigned; (-)) (as salt: maleate) [Example 47, (−)-4-(5-(4-chlorophenyl)-2-methyl-2,3,4,5-tetrahydro-1H-benzo[c]azepin-8-yl)morpholine]"
26,92 to 95,"COc1ccc2c(c1)CN(C)CCC2c1ccc2sccc2c1 (single isomer, unassigned; (-)) (as salt: maleate) [Example 52 (−), (−)-5-benzo[b]thiophen-5-yl-8-methoxy-2-methyl-2,3,4,5-tetrahydro-1H-benzo[c]azepine]"
27,68 to 72,"CCN1CCC(c2ccccc2)c2ccc(N3CCOCC3)cc2C1 (single isomer, unassigned; (-)) (as salt: maleate) [Example 57 (−), (−)-4-(2-ethyl-5-phenyl-2,3,4,5-tetrahydro-1H-benzo[c]azepin-8-yl)morpholine]"
28,195 to 197,"CC(C)N1CCC(c2ccccc2)c2ccc(N3CCOCC3)cc2C1 (single isomer, unassigned; (-)) (as salt: maleate) [Example 58 (−), (−)-4-(2-isopropyl-5-phenyl-2,3,4,5-tetrahydro-1H-benzo[c]azepin-8-yl)morpholine]"
29,112 to 115,"CN1CCC(c2ccccc2)c2ccc(N3CCN(c4ccccn4)CC3)cc2C1 (single isomer, unassigned; (-)) (as salt: tartrate) [Example 68 (−), (−)-2-methyl-5-phenyl-8-(4-(pyridine-2-yl)piperazin-1-yl)-2,3,4,5-tetrahydro-1H-benzo[c]azepine]"
30,122 to 127,"Cc1ccc(-c2ccc3c(c2)CN(C)CCC3c2ccc(C#N)c(F)c2)nn1 (single isomer, unassigned; (-)) (as salt: tartrate) [Example 92 (−), (−)-2-fluoro-4-(2-methyl-8-(6-methylpyridazin-3-yl)-2,3,4,5-tetrahydro-1H-benzo[c]azepin-5-yl)benzonitrile]"
